Assay results taken from publication PMC6600388 (2019).
Read-outs that look alike come from different tables or passages of the source. Residues, ends and D or L forms follow the SMILES beside them.

Test system: human red blood cells
[1] = read-out: RBC Lysis IC50, pH 7.4, pH 7.4
[2] = read-out: RBC Lysis IC50, pH 5.5, pH 5.5

| Compound | IC50 (red cells of human, pH 5.5) | IC50 (red cells of human, pH 7.4) | IC50 [1] | IC50 [2] |
| --- | --- | --- | --- | --- |
| CC[C@H](C)[C@H](NC(=O)[C@H](CCC(=O)O)NC(=O)CNC(=O)[C@H](Cc1ccccc1)NC(=O)[C@H](CC(C)C)NC(=O)CNC(=O)[C@@H](N)CS)C(=O)N[C@@H](CCC(=O)O)C(=O)N[C@@H](CCC(=O)O)C(=O)N[C@@H](Cc1ccccc1)C(=O)N[C@H](C(=O)N[C@@H](CCC(=O)O)C(=O)N[C@@H](CCC(=O)O)C(=O)NCC(=O)N[C@@H](Cc1c[nH]c2ccccc12)C(=O)N[C@@H](CCC(=O)O)C(=O)N[C@@H](CC(N)=O)C(=O)N[C@@H](Cc1ccccc1)C(=O)N[C@H](C(=O)N[C@@H](CC(=O)O)C(=O)N[C@@H](Cc1c[nH]c2ccccc12)C(=O)N[C@@H](Cc1c[nH]c2ccccc12)C(=O)N[C@@H](Cc1ccc(O)cc1)C(=O)NCC(=O)N[C@@H](Cc1ccc(O)cc1)C(=O)NCC(=O)N[C@@H](CCCNC(=N)N)C(=O)N[C@@H](CCCCN)C(=O)N[C@@H](CCCCN)C(=O)N[C@@H](CCCNC(=N)N)C(=O)N[C@@H](CCCNC(=N)N)C(=O)N[C@@H](CCC(N)=O)C(=O)N[C@@H](CCCNC(=N)N)C(=O)N[C@@H](CCCNC(=N)N)C(N)=O)[C@@H](C)CC)[C@@H](C)CC [Peptide 66] (H-CGLFGEIEEFIEEGWENFIDWWYGYGRKKRRQRR-NH2) | 4.08 µM | > 20 µM | – | – |
| CC[C@H](C)[C@H](NC(=O)[C@H](CC(C)C)NC(=O)[C@H](CCC(=O)O)NC(=O)[C@H](CCC(=O)O)NC(=O)[C@@H](NC(=O)[C@H](CCC(=O)O)NC(=O)[C@H](CCC(=O)O)NC(=O)[C@H](Cc1ccccc1)NC(=O)[C@H](CC(C)C)NC(=O)CNC(=O)[C@@H](N)CS)[C@@H](C)CC)C(=O)N[C@@H](CCC(=O)O)C(=O)N[C@@H](CCC(=O)O)C(=O)NCC(=O)N[C@@H](CC(C)C)C(=O)N[C@@H](CCC(=O)O)C(=O)N[C@@H](CC(N)=O)C(=O)N[C@@H](CC(C)C)C(=O)N[C@H](C(=O)N[C@@H](CC(=O)O)C(=O)N[C@@H](Cc1c[nH]c2ccccc12)C(=O)N[C@@H](Cc1c[nH]c2ccccc12)C(=O)N[C@@H](Cc1ccc(O)cc1)C(=O)NCC(=O)N[C@@H](Cc1ccc(O)cc1)C(=O)NCC(=O)N[C@@H](CCCNC(=N)N)C(=O)N[C@@H](CCCCN)C(=O)N[C@@H](CCCCN)C(=O)N[C@@H](CCCNC(=N)N)C(=O)N[C@@H](CCCNC(=N)N)C(=O)N[C@@H](CCC(N)=O)C(=O)N[C@@H](CCCNC(=N)N)C(=O)N[C@@H](CCCNC(=N)N)C(N)=O)[C@@H](C)CC [Peptide 68] (H-CGLFEEIEELIEEGLENLIDWWYGYGRKKRRQRR-NH2) | 4.11 µM | > 20 µM | – | – |
| CC[C@H](C)[C@H](NC(=O)[C@H](CC(C)C)NC(=O)[C@H](CCC(=O)O)NC(=O)[C@H](CCC(=O)O)NC(=O)[C@@H](NC(=O)[C@H](CCC(=O)O)NC(=O)[C@H](CCC(=O)O)NC(=O)[C@H](Cc1ccccc1)NC(=O)[C@H](CC(C)C)NC(=O)CNC(=O)[C@@H](N)CS)[C@@H](C)CC)C(=O)N[C@@H](CCC(=O)O)C(=O)N[C@@H](CCC(=O)O)C(=O)NCC(=O)N[C@@H](CC(C)C)C(=O)N[C@@H](CCC(=O)O)C(=O)N[C@@H](CC(N)=O)C(=O)N[C@@H](CC(C)C)C(=O)N[C@H](C(=O)N[C@@H](CC(=O)O)C(=O)N[C@@H](Cc1c[nH]c2ccccc12)C(=O)N[C@@H](Cc1c[nH]c2ccccc12)C(=O)N[C@@H](Cc1ccc(O)cc1)C(=O)NCC(=O)N[C@@H](Cc1ccc(O)cc1)C(=O)NCC(=O)N[C@@H](Cc1c[nH]cn1)C(=O)N[C@@H](CCCCN)C(=O)N[C@@H](CCCCN)C(=O)N[C@@H](Cc1c[nH]cn1)C(=O)N[C@@H](Cc1c[nH]cn1)C(=O)N[C@@H](CCC(N)=O)C(=O)N[C@@H](Cc1c[nH]cn1)C(=O)N[C@@H](CCCNC(=N)N)C(N)=O)[C@@H](C)CC [Peptide 69] (H-CGLFEEIEELIEEGLENLIDWWYGYGHKKHHQHR-NH2) | 8.73 µM | > 20 µM | – | – |
| CC[C@H](C)[C@H](NC(=O)[C@H](CC(C)C)NC(=O)[C@H](CCC(=O)O)NC(=O)[C@H](CCC(=O)O)NC(=O)[C@@H](NC(=O)[C@H](CCC(=O)O)NC(=O)[C@H](CCC(=O)O)NC(=O)[C@H](Cc1ccccc1)NC(=O)[C@H](CC(C)C)NC(=O)CNC(=O)[C@@H](N)CS)[C@@H](C)CC)C(=O)N[C@@H](CCC(=O)O)C(=O)N[C@@H](CCC(=O)O)C(=O)NCC(=O)N[C@@H](CC(C)C)C(=O)N[C@@H](CCCCN)C(=O)N[C@@H](CC(N)=O)C(=O)N[C@@H](CC(C)C)C(=O)N[C@H](C(=O)N[C@@H](CC(=O)O)C(=O)N[C@@H](Cc1c[nH]c2ccccc12)C(=O)N[C@@H](Cc1c[nH]c2ccccc12)C(=O)N[C@@H](Cc1ccc(O)cc1)C(=O)NCC(=O)N[C@@H](Cc1ccc(O)cc1)C(=O)NCC(=O)N[C@@H](Cc1c[nH]cn1)C(=O)N[C@@H](CCCCN)C(=O)N[C@@H](CCCCN)C(=O)N[C@@H](Cc1c[nH]cn1)C(=O)N[C@@H](Cc1c[nH]cn1)C(=O)N[C@@H](CCC(N)=O)C(=O)N[C@@H](Cc1c[nH]cn1)C(=O)N[C@@H](CCCNC(=N)N)C(N)=O)[C@@H](C)CC [Peptide 70] (H-CGLFEEIEELIEEGLKNLIDWWYGYGHKKHHQHR-NH2) | 2.28 µM | > 20 µM | – | – |
| CGLFEAIEGFIENGWEGMIDGWYG(Peg11)YGRKKRRQRR [Peptide 36e] | – | – | > 100 µM | – |
| CGLFEAIEGFIENGWEGMIDGWYG(Peg 3)YGRKKRRQRR [Peptide 36c] | – | – | > 10 µM | 1.92 µM |
| CGLFEAIEGFIENGWEGMIDGWYG(Peg 6)YGRKKRRQRR [Peptide 36d] | – | – | > 10 µM | 1.22 µM |
| CGLFEAIEGFIENGWEGMIDGWYG(Peg 27)YGRKKRRQRR [Peptide 36f] | – | – | > 100 µM | 28 µM |
